As a reminder, the IC50 is the point on the concentration scale where inhibition reaches its midpoint.

From patent publication US20120015907A1, “Furopyridine compounds and uses thereof” (NOVARTIS AG, priority 2010, published 2012) come the findings set out here.

The target of one test is T1, HCV polymerase (Hepatitis C virus genotype 1b, UniProt Q9WMX2).
T1 construct: (His)6 (C)
Put plainly: biochemical. Particulars: polymerase assay of Biological Example 1; read-out: NS5B polymerase IC50.

The test system of test [1] is HCV replicon I389luc-ubi-neo/NS3-3'/ET in ET (Huh-lucubineo-ET) cells. Put plainly: Replicon assay (Biological Example 2), luciferase read-out. The format is cell-based. Particulars: Hepatitis C virus, luciferase activity 48 hours after compound addition. How it is done: A cell line, ET (Huh-lucubineo-ET) is used for screening of compounds for inhibiting HCV RNA dependent RNA polymerase. The ET cell line is stably transfected with RNA transcripts harboring a I389luc-ubi-neo/NS3-3′/ET; replicon with firefly luciferase-ubiquitin-neomycin phosphotransferase fusion protein and EMCV-IRES driven NS3-5B polyprotein containing the cell culture adaptive mutations (E1202G; […]; K1846T) (Krieger at al, 2001 and unpublished). The ET cells are grown in DMEM (Dulbeco's Modified Eagle's Medium), supplemented with 10% fetal calf serum, 2 mM Glutamine, Penicillin (100 IU/mL)/Streptomycin (100 μg/mL), 1× nonessential amino acids, and 250 μg/mL G418 (“Geneticin”). Reagents are all available through Life Technologies (Bethesda, Md.). The cells are plated at 0.5-1.0×10^4 cells/well in the 96 well plates and incubated for 24 hrs before adding test compound. The compounds are added to the cells to achieve a final concentration of 0.1 nM to 50 μM and a final DMSO (dimethylsulfoxide) concentration of 0.5%. Luciferase activity is measured 48 hours later by adding a lysis buffer and the substrate (Catalog number Glo-lysis buffer E2661 and Bright-Glo luciferase system E2620 Promega, Madison, Wis.). Cells should not be too confluent during the assay. Percent inhibition of replication data is plotted relative to no compound control. To determine the EC50 (effective concentration at which 50% of the maximum inhibition is observed), a 10 point, 3-fold serial dilution for each compound is used, which spans a concentration range of 1000 fold. EC50 values were calculated by fitting % inhibition at each concentration to the following equation:
% inhibition=100%/[(EC50/[I])^b+1]
where b is Hill's coefficient.

With `CNC(=O)c1c(-c2ccc(C)cc2)oc2nc(N(CCC[C@@H]3CCCS3(=O)=O)S(C)(=O)=O)c(C3CC3)cc12` [Example 24.7, 5-Cyclopropyl-6-{[3-((R)-1,1-dioxo-tetrahydrothiophen-2-yl)-propyl]-methanesulfonyl-amino}-2-p-tolyl-furo[2,3-b]pyridine-3-carboxylic acid methylamide], the figures for the IC50 (on HCV polymerase; in test [1]) were 5 nM and not above 100 nM, respectively.
With `CNC(=O)c1c(-c2ccc(F)cc2)oc2nc(N(C)S(C)(=O)=O)c(CCCCC(=O)N3CCC[C@H]3C(=O)O)cc12` [Example 4.7, (S)-1-(5-(2-(4-fluorophenyl)-3-(methylcarbamoyl)-6-(N-methylmethylsulfonamido)furo[2,3-b]pyridin-5-yl)pentanoyl)pyrrolidine-2-carboxylic acid], the IC50 at HCV polymerase was 51 nM; in test [1], not below 5000 nM.
In the same order, the values of `CNC(=O)c1c(-c2ccc(C)cc2)oc2nc(N(CCCC(C(=O)O)c3ccccc3)S(C)(=O)=O)c(C3CC3)cc12` (stereo not shown) [Example 28.5, 5-(N-(5-cyclopropyl-3-(methylcarbamoyl)-2-p-tolylfuro[2,3-b]pyridin-6-yl)methylsulfonamido)-2-phenylpentanoic acid] are 1 nM and not above 100 nM.
In the same order, the values of `CNC(=O)c1c(-c2ccc(F)cc2)oc2nc(N(C)S(C)(=O)=O)c(C3CC3)cc12` [Example 1, 5-Cyclopropyl-2-(4-fluoro-phenyl)-6-(methanesulfonyl-methyl-amino)-furo[2,3-b]pyridine-3-carboxylic acid methylamide] are 16 nM and not above 100 nM.
Turning to `CNC(=O)c1c(-c2ccc(C)cc2)oc2nc(N(CCCC3(C(=O)O)CCCC3)S(C)(=O)=O)c(C3CC3)cc12` [Example 28, 1-(3-(N-(5-cyclopropyl-3-(methylcarbamoyl)-2-p-tolylfuro[2,3-b]pyridin-6-yl)methylsulfonamido)propyl) cyclopentanecarboxylic acid], the IC50 on HCV polymerase is 1 nM; in test [1] it was not above 100 nM.
On to `CNC(=O)c1c(-c2ccc(C)cc2)oc2nc(N(CC[C@H]3C[C@@H]3C(=O)O)S(C)(=O)=O)c(C3CC3)cc12` [Example 28.2, (1S,2R)-2-(2-(N-(5-cyclopropyl-3-(methylcarbamoyl)-2-p-tolylfuro[2,3-b]pyridin-6-yl)methylsulfonamido)ethyl) cyclopropanecarboxylic acid], for which the results for the IC50 (on HCV polymerase; in test [1]) were 2 nM and not above 100 nM, respectively.
In the case of `CNC(=O)c1c(-c2ccc(F)cc2)oc2nc3c(cc12)C(C)C(O)CCN3S(C)(=O)=O` (stereo not shown) [Example 31, 2-(4-Fluoro-phenyl)-6-hydroxy-9-methanesulfonyl-5-methyl-6,7,8,9-tetrahydro-5H-1-oxa-9,10-diaza-cyclohepta[f]indene-3-carboxylic acid methylamide], the results for the 50% inhibitory concentration (IC50) (at HCV polymerase; in test [1]) were 35 nM and not above 100 nM, respectively.
In the same order, the values of `CNC(=O)c1c(-c2ccc(Oc3ccc(F)cc3)cc2)oc2nc(N(CCCCC(=O)O)S(C)(=O)=O)c(C3CC3)cc12` [Example 27.2, 5-(N-(5-cyclopropyl-2-(4-(4-fluorophenoxy)phenyl)-3-(methylcarbamoyl)furo[2,3-b]pyridin-6-yl)methylsulfonamido) pentanoic acid] are 1 nM and not above 100 nM.
As for `CCc1cc2c(C(=O)NC)c(-c3ccc(F)cc3)oc2nc1N(CCCCS(=O)(=O)C(C)C)S(C)(=O)=O` [Example 23.92, 5-ethyl-2-(4-fluorophenyl)-6-(N-(4-(isopropylsulfonyl)butyl)methylsulfonamido)-N-methylfuro[2,3-b]pyridine-3-carboxamide], the values for the IC50 (on HCV polymerase; in test [1]) were 11 nM and not above 100 nM, respectively.
The matching figures for `CNC(=O)c1c(-c2ccc(F)cc2)oc2nc(N(CCCCS(C)(=O)=O)S(C)(=O)=O)c(I)cc12` [Example 18.997, 2-(4-fluorophenyl)-5-iodo-N-methyl-6-(N-(4-(methylsulfonyl)butyl)methylsulfonamido)furo[2,3-b]pyridine-3-carboxamide]: 22 nM and not above 100 nM.
In the same order, the values of `CNC(=O)c1c(-c2ccc(Cl)cc2)oc2nc(N(CCCCS(C)(=O)=O)S(C)(=O)=O)c(C3CC3)cc12` [Example 25.8] are 1 nM and not above 100 nM.
The matching figures for `CCc1cc2c(C(=O)NC)c(-c3ccc(F)cc3)oc2nc1N(CCCN1CCCCS1(=O)=O)S(C)(=O)=O` [Example 23.7, 6-{[3-(1,1-Dioxo-[1,2]thiazinan-2-yl)-propyl]-methanesulfonyl-amino}-5-ethyl-2-(4-fluorophenyl)-furo[2,3-b]pyridine-3-carboxylic acid methylamide]: 5 nM and not above 100 nM.
On to `CNC(=O)c1c(-c2ccc(Cl)cc2)oc2nc(N(C)S(C)(=O)=O)c(C3CC3)cc12` [Example 2.96], for which the IC50 at HCV polymerase is 24 nM; in test [1] it was not above 100 nM.
The matching figures for `CNC(=O)c1c(-c2ccc(F)cc2)oc2nc(N(CCCC(C)(C)C(=O)OCC(C)C)S(C)(=O)=O)c(C3CC3)cc12` [Example 26, isobutyl 5-(N-(5-cyclopropyl-2-(4-fluorophenyl)-3-(methylcarbamoyl)furo[2,3-b]pyridin-6-yl)methylsulfonamido)-2,2-dimethylpentanoate]: 6 nM and not above 100 nM.
The matching figures for `CNC(=O)c1c(-c2ccc(F)cc2)oc2nc(N(C)S(C)(=O)=O)c(C#CCCC(=O)O)cc12` [Example 5, 5-(2-(4-fluorophenyl)-3-(methylcarbamoyl)-6-(N-methylmethylsulfonamido)furo[2,3-b]pyridin-5-yl)pent-4-ynoic acid]: 256 nM and not below 5000 nM.
As for `CNC(=O)c1c(-c2ccc(F)cc2)oc2nc(N(C)S(C)(=O)=O)c(CCCCC(=O)O)cc12` [Example 4, 5-(2-(4-fluorophenyl)-3-(methylcarbamoyl)-6-(N-methylmethylsulfonamido)furo[2,3-b]pyridin-5-yl)pentanoic acid], the IC50 on HCV polymerase is 49 nM; in test [1], not below 5000 nM.
On to `CNC(=O)c1c(-c2ccc(F)cc2)oc2nc(N(C)S(C)(=O)=O)c(C(C)(O)CO)cc12` (stereo not shown) [Example 9, 5-(1,2-dihydroxypropan-2-yl)-2-(4-fluorophenyl)-N-methyl-6-(N-methylmethylsulfonamido)furo[2,3-b]pyridine-3-carboxamide], for which the IC50 was 2320 nM on HCV polymerase and not below 5000 nM in test [1].
In the same order, the values of `CCc1cc2c(C(=O)NC)c(-c3ccc(F)cc3)oc2nc1N(CCCC1C(=O)CCS1(=O)=O)S(C)(=O)=O` (stereo not shown) [Example 23.99, 5-Ethyl-2-(4-fluoro-phenyl)-6-{methanesulfonyl-[3-(1,1,3-trioxo-tetrahydrothiophen-2-yl)-propyl]-amino}-furo[2,3-b]pyridine-3-carboxylic acid methylamide] are 26 nM and not above 100 nM.
In the same order, the values of `CNC(=O)c1c(-c2ccc(F)cc2)oc2nc(N(C)S(C)(=O)=O)c(CCCCC(C)(O)C(C)(C)O)cc12` (stereo not shown) [Example 4.9, 5-(5,6-dihydroxy-5,6-dimethylheptyl)-2-(4-fluorophenyl)-N-methyl-6-(N-methylmethylsulfonamido)furo[2,3-b]pyridine-3-carboxamide] are 75 nM and not above 100 nM.
On to `CNC(=O)c1c(-c2ccc(F)cc2)oc2nc(N(CCCCCS(C)(=O)=O)S(C)(=O)=O)c(C3CC3)cc12` [Example 26.2, 5-cyclopropyl-2-(4-fluorophenyl)-N-methyl-6-(N-(5-(methylsulfonyl)pentyl)methylsulfonamido) furo[2,3-b]pyridine-3-carboxamide], for which the values for the IC50 (on HCV polymerase; in test [1]) were 4 nM and not above 100 nM, respectively.
The matching figures for `CNC(=O)c1c(-c2ccc(Cc3ccccc3)cc2)oc2nc(N(CCCCC(=O)O)S(C)(=O)=O)c(C3CC3)cc12` [Example 27.6, 5-(N-(2-(4-benzylphenyl)-5-cyclopropyl-3-(methylcarbamoyl)furo[2,3-b]pyridin-6-yl)methylsulfonamido) pentanoic acid]: 1 nM and not above 100 nM.
In the same order, the values of `C=Cc1cc2c(C(=O)NC)c(-c3ccc(F)cc3)oc2nc1N(C)S(C)(=O)=O` [Example 2.1, 2-(4-fluorophenyl)-N-methyl-6-(N-methylmethylsulfonamido)-5-vinylfuro[2,3-b]pyridine-3-carboxamide] are 12 nM and not above 100 nM.
For `CNC(=O)c1c(-c2ccc(C)cc2)oc2nc(N(CCC3CCS(=O)(=O)C3)S(C)(=O)=O)c(C3CC3)cc12` (stereo not shown) [Example 26.1, 5-Cyclopropyl-6-{[2-(1,1-dioxo-tetrahydro-thiophen-3-yl)-ethyl]-methanesulfonyl-amino}-2-p-tolyl-furo[2,3-b]pyridine-3-carboxylic acid methylamide], the IC50 on HCV polymerase is 1 nM; in test [1], not above 100 nM.
